In US20240390340A1 (INCYTE CORPORATION, priority 2023, published 2024):
Like-named read-outs stand apart in the source and are kept apart here.

How the values were obtained:
KRAS G12D = KRAS G12D (Homo sapiens, UniProt P01116, G12D); assay: GDP-GTP exchange assay (bodipy-GDP/GppNHp, SOS1), KRAS G12D; type: biochemical
KRAS G12V = KRAS G12V (Homo sapiens, UniProt P01116, G12V); assay: GDP-GTP exchange assay (bodipy-GDP/GppNHp, SOS1), KRAS G12V; type: biochemical
[1] = bodipy-loaded KRAS G12D 2.5 nM, 4 h pre-incubation, value for the most potent isomer quoted for certain compounds, read-out: G12D (KRAS G12D exchange assay IC50)
[2] = KRAS G12V mutant, value for the most potent isomer quoted for certain compounds, read-out: G12V (KRAS G12V exchange assay IC50)

Sequence of KRAS G12D (P01116 1-188 isoform P01116-2 G12D): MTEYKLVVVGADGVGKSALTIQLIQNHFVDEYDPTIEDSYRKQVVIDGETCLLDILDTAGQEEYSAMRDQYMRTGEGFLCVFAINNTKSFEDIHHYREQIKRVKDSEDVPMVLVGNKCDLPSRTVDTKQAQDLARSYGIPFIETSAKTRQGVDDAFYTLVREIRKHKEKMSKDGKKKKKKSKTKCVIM
Sequence of KRAS G12V (P01116 1-188 isoform P01116-2 G12V): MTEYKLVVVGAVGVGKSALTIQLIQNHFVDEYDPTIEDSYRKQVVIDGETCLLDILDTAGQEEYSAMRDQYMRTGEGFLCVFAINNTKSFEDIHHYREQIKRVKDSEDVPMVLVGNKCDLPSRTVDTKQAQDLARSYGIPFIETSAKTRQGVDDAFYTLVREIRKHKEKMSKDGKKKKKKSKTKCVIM

Row | IC50 (KRAS G12D; [1]) [nM] | IC50 (KRAS G12V; [2]) [nM] | IC50 (KRAS G12D; Table H, column G12D, for compounds isolated as several atropisomers/diastereoisomers the value for the most potent isomer is quoted, read-out: KRAS G12D exchange assay IC50) [nM] | IC50 (KRAS G12V; Table H, column G12V, for compounds isolated as several atropisomers/diastereoisomers the value for the most potent isomer is quoted, read-out: KRAS G12V exchange assay IC50) [nM] | SMILES
1 | ≤ 100 | ≤ 100 |  |  | COC(=O)N1C[C@@H](Oc2ccccn2)C[C@@H]1c1cc2c(C)nc3c(F)c(-c4cccc(Cl)c4Cl)c(CCC#N)cc3c2n1[C@H]1[C@H]2CN[C@@H]1C2 [Example 162]
2 |  |  | ≤ 100 | ≤ 100 | Cc1nc2c(F)c(-c3cccc(Cl)c3Cl)c(CCC#N)cc2c2c1cc([C@H]1C[C@H](Oc3ccc(=O)n(C)c3)CN1C(=O)C1CC1)n2[C@H]1[C@H]2CN[C@@H]1C2 [Example 50]
3 | ≤ 100 | ≤ 100 |  |  | Cc1nc2c(F)c(-c3cccc(Cl)c3Cl)c(CCC#N)cc2c2c1cc([C@H]1C[C@H](Oc3cc(N4CC(OC(F)F)C4)ccn3)CN1C(=O)C1CC1)n2[C@H]1[C@H]2CN[C@@H]1C2 [Example 369]
4 | ≤ 100 | ≤ 100 |  |  | Cc1nc2c(F)c(-c3cccc(Cl)c3Cl)c(CCC#N)cc2c2c1cc([C@H]1C[C@H](Oc3cn(C)nc3C(F)F)CN1C(=O)C1CC1)n2[C@H]1[C@H]2CN[C@@H]1C2 [Example 299]
5 | ≤ 100 | ≤ 100 |  |  | C#Cc1ccc(O[C@H]2C[C@H](c3cc4c(C)nc5c(F)c(-c6cccc(Cl)c6Cl)c(CCC#N)cc5c4n3[C@H]3[C@H]4CN[C@@H]3C4)N(C(=O)C3CC3)C2)nc1 [Example 305]
6 | ≤ 100 | ≤ 100 |  |  | Cc1cc(C)cc(O[C@H]2C[C@H](c3cc4c(C)nc5c(F)c(-c6cccc(Cl)c6Cl)c(CCC#N)cc5c4n3[C@H]3[C@H]4CN[C@@H]3C4)N(C(=O)C3CC3)C2)c1 [Example 166]
7 | ≤ 100 | ≤ 100 |  |  | Cc1nc(O[C@H]2C[C@H](c3cc4c(C)nc5c(F)c(-c6cccc(Cl)c6Cl)c(CCC#N)cc5c4n3[C@H]3[C@H]4CN[C@@H]3C4)N(C(=O)C3CC3)C2)ccc1C#N [Example 306]
8 | ≤ 100 | ≤ 100 |  |  | COc1ccnc(O[C@H]2C[C@H](c3cc4c(C)nc5c(F)c(-c6cccc(Cl)c6Cl)c(CCC#N)cc5c4n3[C@H]3[C@H]4CN[C@@H]3C4)N(C(=O)C3CC3)C2)c1 [Example 328]
9 | 5000 to 10000 | 5000 to 10000 |  |  | Cc1nc2c(F)c(-c3cccc(Cl)c3Cl)c(CCC#N)cc2c2c1cc([C@H]1C[C@H](Oc3ncco3)CN1C(=O)C1CC1)n2[C@H]1[C@H]2CN[C@@H]1C2 [Example 188]
10 | ≤ 100 | ≤ 100 |  |  | Cc1nc2c(F)c(-c3cccc(Cl)c3Cl)c(CCC#N)cc2c2c1cc([C@H]1C[C@H](Oc3ccn(C)c3C(F)(F)F)CN1C(=O)C1CC1)n2[C@H]1[C@H]2CN[C@@H]1C2 [Example 407]
11 | ≤ 100 | ≤ 100 |  |  | COc1ncc(Br)cc1O[C@H]1C[C@H](c2cc3c(C)nc4c(F)c(-c5cccc(Cl)c5Cl)c(CCC#N)cc4c3n2[C@H]2[C@H]3CN[C@@H]2C3)N(C(=O)C2CC2)C1 [Example 450]
12 | ≤ 100 | ≤ 100 |  |  | Cc1ccn([C@H]2C[C@H](c3cc4c(C)nc5c(F)c(-c6cccc(Cl)c6Cl)c(CCC#N)cc5c4n3[C@H]3[C@H]4CN[C@@H]3C4)N(C(=O)C3CC3)C2)n1 [Example 315]

Further lines, the molecule ahead of its results:

Row | SMILES | IC50 (KRAS G12D; [1]) [nM] | IC50 (KRAS G12V; [2]) [nM] | IC50 (KRAS G12D; Table H, column G12D, for compounds isolated as several atropisomers/diastereoisomers the value for the most potent isomer is quoted, read-out: KRAS G12D exchange assay IC50) [nM] | IC50 (KRAS G12V; Table H, column G12V, for compounds isolated as several atropisomers/diastereoisomers the value for the most potent isomer is quoted, read-out: KRAS G12V exchange assay IC50) [nM]
13 | N#CCCc1cc2c(nc(C3=CCOCC3)c3cc([C@H]4C[C@H](OCc5c(F)cccc5F)CN4C(=O)C4CC4)n([C@H]4[C@H]5CN[C@@H]4C5)c32)c(F)c1-c1cccc(Cl)c1Cl [Example 218] | ≤ 100 | ≤ 100 |  | 
14 | Cc1nc2c(F)c(-c3cccc(Cl)c3Cl)c(CCC#N)cc2c2c1cc([C@H]1C[C@H](Oc3cncc4c3OCCC4)CN1C(=O)C1CC1)n2[C@H]1[C@H]2CN[C@@H]1C2 [Example 289] | ≤ 100 | ≤ 100 |  | 
15 | COc1ccc(F)c(CO[C@H]2C[C@H](c3cc4c(C)nc5c(F)c(-c6cccc(Cl)c6Cl)c(CCC#N)cc5c4n3[C@H]3[C@H]4CN[C@@H]3C4)N(C(=O)C3CC3)C2)c1F [Example 186] | ≤ 100 | ≤ 100 |  | 
16 | CC(O)c1nc2c(F)c(-c3cccc(Cl)c3Cl)c(CCC#N)cc2c2c1cc([C@H]1C[C@H](OCc3c(F)cccc3F)CN1C(=O)C1(C)CC1)n2[C@H]1[C@H]2CN[C@@H]1C2 (stereo partly drawn) [Example 185] | ≤ 100 | ≤ 100 |  | 
17 | Cc1nc2c(F)c(-c3cccc(Cl)c3Cl)c(CCC#N)cc2c2c1cc([C@H]1C[C@H](n3nncc3Cc3ccccc3)CN1C(=O)C1CC1)n2[C@H]1[C@H]2CN[C@@H]1C2 [Example 160] | 100 to 1000 | ≤ 100 |  | 
18 | Cc1nc2c(F)c(-c3cccc(Cl)c3Cl)c(CCC#N)cc2c2c1cc([C@H]1C[C@H](OC[C@@H]3CCCC[C@H]3C#N)CN1C(=O)C1CC1)n2[C@H]1[C@H]2CN[C@@H]1C2 [Example 285] | ≤ 100 | ≤ 100 |  | 
19 | Cc1nc2c(F)c(-c3cccc(Cl)c3Cl)c(CCC#N)cc2c2c1cc([C@H]1C[C@H](OCc3nnn(C)c3C)CN1C(=O)C1CC1)n2[C@H]1[C@H]2CN[C@@H]1C2 [Example 234] | ≤ 100 | ≤ 100 |  | 
20 | Cc1nc2c(F)c(-c3cccc(Cl)c3Cl)c(CCC#N)cc2c2c1cc([C@H]1C[C@H](n3cncn3)CN1C(=O)C1CC1)n2[C@H]1[C@H]2CN[C@@H]1C2 [Example 276] | ≤ 100 | ≤ 100 |  | 
21 | Cc1nc2c(F)c(-c3cccc(Cl)c3Cl)c(CCC#N)cc2c2c1cc([C@H]1C[C@H](n3cc(N4CCOCC4)cn3)CN1C(=O)C1CC1)n2[C@H]1[C@H]2CN[C@@H]1C2 [Example 428] | ≤ 100 | ≤ 100 |  | 
22 | Cc1nc2c(F)c(-c3cccc(Cl)c3Cl)c(CCC#N)cc2c2c1cc([C@H]1C[C@H](n3nnc(-c4ccncc4)n3)CN1C(=O)C1CC1)n2[C@H]1[C@H]2CN[C@@H]1C2 (atropisomer, axis not shown) [Example 437] | ≤ 100 | ≤ 100 |  | 
23 | Cc1nc2c(F)c(-c3cccc(Cl)c3Cl)c(CCC#N)cc2c2c1cc([C@H]1C[C@H](OCc3cccc(C(=O)O)c3)CN1C(=O)C1CC1)n2[C@H]1[C@H]2CN[C@@H]1C2 [Example 165] | ≤ 100 | ≤ 100 |  | 
24 | Cc1nc2c(F)c(-c3cccc(Cl)c3Cl)c(CCC#N)cc2c2c1cc([C@H]1C[C@H](OC(C)c3c(F)cccc3F)CN1C(=O)C1CC1)n2[C@H]1[C@H]2CN[C@@H]1C2 (stereo partly drawn) [Example 227] | ≤ 100 | ≤ 100 |  | 
25 | [2H]C([2H])(O[C@H]1C[C@H](c2cc3c(C)nc4c(F)c(-c5cccc(Cl)c5Cl)c(CCC#N)cc4c3n2[C@H]2[C@H]3CN[C@@H]2C3)N(C(=O)C2CC2)C1)c1cc(C)sn1 [Example 229] | ≤ 100 | ≤ 100 |  | 
26 | Cc1nc2c(F)c(-c3cccc(Cl)c3Cl)c(CCC#N)cc2c2c1cc([C@H]1C[C@H](n3cc(C(F)(F)F)nn3)CN1C(=O)C1CC1)n2[C@H]1[C@H]2CN[C@@H]1C2 [Example 414] | ≤ 100 | ≤ 100 |  | 
27 | Cc1nc2c(F)c(-c3cccc(Cl)c3Cl)c(CCC#N)cc2c2c1cc([C@H]1C[C@H](n3nncc3-c3ccccc3)CN1C(=O)C1CC1)n2[C@H]1[C@H]2CN[C@@H]1C2 [Example 143] | ≤ 100 | ≤ 100 |  | 
28 | Cc1nc2c(F)c(-c3cccc(Cl)c3Cl)c(CCC#N)cc2c2c1cc([C@H]1C[C@H](N3C(=O)COC3=O)CN1C(=O)C1CC1)n2[C@H]1[C@H]2CN[C@@H]1C2 [Example 320] | ≤ 100 | ≤ 100 |  | 
29 | Cc1nc2c(F)c(-c3cccc(Cl)c3Cl)c(CCC#N)cc2c2c1cc([C@H]1C[C@H](n3ccnn3)CN1C(=O)C1CC1)n2[C@H]1[C@H]2CN[C@@H]1C2 [Example 342] | ≤ 100 | ≤ 100 |  | 
30 | Cc1nc2c(F)c(-c3cccc(Cl)c3Cl)c(CCC#N)cc2c2c1cc([C@H]1C[C@H](OCc3c(F)cccc3F)CN1C(=O)C1CC1)n2[C@H]1[C@H]2CN[C@@H]1C2 [Example 115] | ≤ 100 | ≤ 100 |  | 
